Results as given in US8580790B2, “(Heterocycle/condensed piperidine)-(piperazinyl)-1-alkanone or (heterocycle/condensed pyrrolidine)-(piperazinyl)-1-alkanone derivatives and use thereof as p75 inhibitors” (Sanofi, priority 2009, dated 2013).
Counter-ions that a name gives are not always drawn.

melting point [°C]	Compound
160 to 162	O=C(CN1CC2CCC(C1)N2c1ncc(F)cn1)N1CCc2c(cnn2CC(F)(F)F)C1 (as salt: oxalate)
201 to 202	O=C(CN1CC2CCC(C1)N2c1ccc(-c2nnn[nH]2)cn1)N1CCc2nc(-c3ccccc3)sc2C1
252 to 253	COC(=O)c1ccc(N2C3CCC2CN(CC(=O)N2Cc4nc(-c5ccccc5)sc4C2)C3)nc1
147 to 149	Cn1cc2c(n1)CCN(C(=O)CN1CC3CCC(C1)N3c1ncc(F)cn1)C2
198 to 200	N#Cc1ccc(N2C3CCC2CN(CC(=O)N2CCc4nn(-c5ccccc5)cc4C2)C3)nc1
207 to 209	C[C@@H]1CN(c2cccnc2)C[C@H](C)N1CC(=O)N1CCc2nc(-c3ccccc3)[nH]c2C1 [compound 145, 2-((2S,6R)-2,6-dimethyl-4-pyridin-3-ylpiperazin-1-yl)-1-(2-phenyl-3,4,6,7-tetrahydroimidazo[4,5-c]pyridin-5-yl)ethanone]
182 to 183	C[C@@H]1CN(c2ccc(-c3nnn(C)n3)cn2)C[C@H](C)N1CC(=O)N1CCc2nn(-c3ccccc3)cc2C1 [compound 87, 2-{(2S,6R)-2,6-dimethyl-4-[5-(2-methyl-2H-tetrazol-5-yl)pyridin-2-yl]piperazin-1-yl}-1-(2-phenyl-2,4,6,7-tetrahydropyrazolo[4,3-c]pyridin-5-yl)ethanone]
103 to 105	C[C@@H]1CN(c2ccc(S(C)(=O)=O)cn2)C[C@H](C)N1CC(=O)N1CCc2nn(-c3ccccc3)cc2C1 [compound 131, 2-[(2S,6R)-4-(5-methanesulphonylpyridin-2-yl)-2,6-dimethylpiperazin-1-yl]-1-(2-phenyl-2,4,6,7-tetrahydropyrazolo[4,3-c]pyridin-5-yl)ethanone]
50 to 51	C[C@@H]1CN(c2ccc(C(F)(F)F)cn2)C[C@H](C)N1CC(=O)N1CCc2nn(C)cc2C1 (as salt: HCl) [compound 100, 2-[(2S,6R)-2,6-dimethyl-4-(5-trifluoromethylpyridin-2-yl)piperazin-1-yl]-1-(2-methyl-2,4,6,7-tetrahydropyrazolo[4,3-c]pyridin-5-yl)ethanone]
203 to 207	COc1ccc(-c2nc3c(s2)CN(C(=O)CN2CC4CCC(C2)N4c2ncc(F)cn2)CC3)cc1
159 to 161	COc1ccc(-c2nc3c(s2)CN(C(=O)CN2[C@H](C)CN(c4ncc(F)cn4)C[C@@H]2C)CC3)cc1 [compound 132, 2-[(2S,6R)-4-(5-fluoropyrimidin-2-yl)-2,6-dimethylpiperazin-1-yl]-1-[2-(4-methoxyphenyl)-6,7-dihydro-4H-thiazolo[5,4-c]pyridin-5-yl]ethanone]
174 to 175	O=C(CN1CC2CC1CN2c1ccc(C(F)(F)F)cn1)N1CCc2nn(-c3ccccc3)cc2C1 (stereo not drawn) [compound 127, 1-(2-phenyl-2,4,6,7-tetrahydropyrazolo[4,3-c]pyridin-5-yl)-2-[5-(5-trifluoromethylpyridin-2-yl)-2,5-diazabicyclo[2.2.1]hept-2-yl]ethanone]
142 to 145	O=C(CN1CCCN(c2cccnc2)CC1)N1CCc2nc(-c3ccccc3)sc2C1 (as salt: HCl) [compound 30, 1-(2-phenyl-6,7-dihydro-4H-thiazolo[5,4-c]pyridin-5-yl)-2-(4-pyridin-3-yl-[1,4]diazepan-1-yl)ethanone]
156 to 159	C[C@@H]1CN(CC(=O)N2CCc3nn(-c4ccccc4)cc3C2)[C@@H](C)CN1c1ccc(C#N)cn1 [compound 52, 6-{(2R,5S)-2,5-dimethyl-4-[2-oxo-2-(2-phenyl-2,4,6,7-tetrahydropyrazolo[4,3-c]pyridin-5-yl)ethyl]piperazin-1-yl}nicotinonitrile]
193 to 194	O=C(CN1CC2CCC(C1)N2c1ncc(F)cn1)N1CCc2nc(-c3ccncc3)sc2C1
189 to 190	C[C@@H]1CN(c2ccc(-c3nnco3)cn2)C[C@H](C)N1CC(=O)N1CCc2nn(-c3ccccc3)cc2C1 [compound 90, 2-[(2S,6R)-2,6-dimethyl-4-(5-[1,3,4]oxadiazol-2-ylpyridin-2-yl)piperazin-1-yl]-1-(2-phenyl-2,4,6,7-tetrahydropyrazolo[4,3-c]pyridin-5-yl)ethanone]
165 to 168	O=C(CN1CC2CCC(C1)N2c1cccnc1)N1CCc2nn(-c3ccccc3)cc2C1
148 to 150	O=C(CN1CC2CCC(C1)N2c1ccc(C(F)(F)F)cn1)N1CCc2nc(-c3ccc(F)cc3)[nH]c2C1
180 to 181	C[C@@H]1CN(c2cccnc2)C[C@H](C)N1CC(=O)N1CCc2nn(-c3ccc(F)cn3)cc2C1 [compound 142, 2-((2S,6R)-2,6-dimethyl-4-pyridin-3-ylpiperazin-1-yl)-1-[2-(5-fluoropyridin-2-yl)-2,4,6,7-tetrahydropyrazolo[4,3-c]pyridin-5-yl]ethanone]
190 to 191	C[C@@H]1CN(c2ccc(C(F)(F)F)cn2)C[C@H](C)N1CC(=O)N1CCc2nn(-c3ccc(C(F)(F)F)cn3)cc2C1 [compound 103, 2-[(2S,6R)-2,6-dimethyl-4-(5-trifluoromethylpyridin-2-yl)piperazin-1-yl]-1-[2-(5-trifluoromethylpyridin-2-yl)-2,4,6,7-tetrahydropyrazolo[4,3-c]pyridin-5-yl]ethanone]
180 to 183	O=C(CN1CCN(c2ccc(C(F)(F)F)cn2)C(=O)C1)N1CCc2nc(-c3cccnc3)sc2C1 [compound 84, 4-[2-oxo-2-(2-pyridin-3-yl-6,7-dihydro-4H-thiazolo[5,4-c]pyridin-5-yl)ethyl]-1-(5-trifluoromethylpyridin-2-yl)piperazin-2-one]

melting point [°C]	Compound
145 to 147	C[C@@H]1CN(c2ccc(C(F)(F)F)cn2)C[C@H](C)N1CC(=O)N1CCc2nc(-c3ccc(F)cc3)[nH]c2C1 [compound 124, 2-[(2S,6R)-2,6-dimethyl-4-(5-trifluoromethylpyridin-2-yl)piperazin-1-yl]-1-[2-(4-fluorophenyl)-3,4,6,7-tetrahydroimidazo[4,5-c]pyridin-5-yl]ethanone]
212 to 213	N#Cc1ccc(N2C3CCC2CN(CC(=O)N2CCc4nc(-c5ccc(F)cc5)sc4C2)C3)nc1
186 to 188	COc1ccc(-n2cc3c(n2)CCN(C(=O)CN2CC4CCC(C2)N4c2ncc(F)cn2)C3)cc1
70 to 73	COc1ccc(-c2nc3c(s2)CN(C(=O)CN2CC4CC2CN4c2ccc(C(F)(F)F)cn2)CC3)cc1 (stereo not drawn) [compound 133, 1-[2-(4-methoxyphenyl)-6,7-dihydro-4H-thiazolo[5,4-c]pyridin-5-yl]-2-[5-(5-trifluoromethylpyridin-2-yl)-2,5-diazabicyclo[2.2.1]hept-2-yl]ethanone]
140 to 142	O=C(CN1CCN(c2ccc(C(F)(F)F)cn2)C(=O)C1)N1CCc2oc(-c3ccccc3)nc2C1 [compound 83, 4-[2-oxo-2-(2-phenyl-6,7-dihydro-4H-oxazolo[4,5-c]pyridin-5-yl)ethyl]-1-(5-trifluoromethylpyridin-2-yl)piperazin-2-one]
212 to 213	O=C(CN1CC2CCC(C1)N2c1ccc(C(F)(F)F)cn1)N1CCc2nn(-c3ccccc3)cc2C1
88 to 89	O=C(CN1CC2CCC(C1)N2c1ncc(F)cn1)N1CCc2oc(-c3ccccc3)nc2C1
185 to 186	O=C(CN1CCN(c2cncc(Cl)n2)CC1)N1CCc2nn(-c3ccc(C(F)(F)F)cn3)cc2C1 [compound 108, 2-(6′-chloro-2,3,5,6-tetrahydro[1,2′]bipyrazinyl-4-yl)-1-[2-(5-trifluoromethylpyridin-2-yl)-2,4,6,7-tetrahydropyrazolo[4,3-c]pyridin-5-yl]ethanone]
198 to 200	O=C(CN1CCN(c2ccc(C(F)(F)F)cn2)C(=O)C1)N1CCc2nc(-c3ccccc3)[nH]c2C1 [compound 78, 4-[2-oxo-2-(2-phenyl-3,4,6,7-tetrahydroimidazo[4,5-c]pyridin-5-yl)ethyl]-1-(5-trifluoromethylpyridin-2-yl)piperazin-2-one]
165 to 166	C[C@@H]1CN(c2ccc(C(F)(F)F)cn2)C[C@H](C)N1CC(=O)N1CCc2nn(-c3ccccn3)cc2C1 [compound 118, 2-[(2S,6R)-2,6-dimethyl-4-(5-trifluoromethylpyridin-2-yl)piperazin-1-yl]-1-(2-pyridin-2-yl-2,4,6,7-tetrahydropyrazolo[4,3-c]pyridin-5-yl)ethanone]
192 to 193	O=C(CN1CC2CCC(C1)N2c1ccc(C(F)(F)F)cn1)N1CCc2nn(-c3ccc(C(F)(F)F)cn3)cc2C1
207 to 208	O=C(O)c1ccc(N2CC3CCC(C2)N3CC(=O)N2CCc3nn(-c4ccccc4)cc3C2)nc1
201 to 202	O=C(CN1CC2CCC(C1)N2c1ccc(-c2ncon2)cn1)N1CCc2nn(-c3ccccc3)cc2C1
162 to 163	COC(=O)c1ccc(N2CC3CCC(C2)N3CC(=O)N2CCc3nc(-c4ccccc4)sc3C2)nc1
217 to 218	COC(=O)c1ccc(N2C3CCC2CN(CC(=O)N2CCc4nn(-c5ccc(C(F)(F)F)cn5)cc4C2)C3)nc1
162 to 164	O=C(CN1CC2CCC(C1)N2c1ncc(F)cn1)N1CCc2c(cnn2-c2ccc(C(F)(F)F)cc2)C1
82 to 83	O=C(CN1CCN(c2ccc(C(F)(F)F)cn2)C(=O)C1)N1CCc2c(cnn2CC(F)(F)F)C1 (as salt: oxalate) [compound 66, 4-{2-oxo-2-[1-(2,2,2-trifluoroethyl)-1,4,6,7-tetrahydropyrazolo[4,3-c]pyridin-5-yl]ethyl}-1-(5-trifluoromethylpyridin-2-yl)piperazin-2-one]
212 to 213	O=C(CN1CC2CCC(C1)N2c1ncc(F)cn1)N1CCc2nc(-c3ccccc3)ncc2C1
180 to 184	O=C(CN1CC2CCC(C1)N2c1ncc(F)cn1)N1CCc2sc(-c3ccccc3)nc2C1
193	O=C(CN1CC2CCC(C1)N2c1ncc(F)cn1)N1CCc2nc(-c3ccccc3)oc2C1
159 to 160	C[C@@H]1CN(CC(=O)N2CCc3nc(-c4ccccc4)sc3C2)[C@@H](C)CN1c1ccc(C#N)cn1 [compound 59, 6-{(2R,5S)-2,5-dimethyl-4-[2-oxo-2-(2-phenyl-6,7-dihydro-4H-thiazolo[5,4-c]pyridin-5-yl)ethyl]piperazin-1-yl}nicotinonitrile]
